For test [1], the system named is HFF. Description: Cytotoxicity against HFF assessed as reduction in cell viability after 48 hrs by sulforhodamine B assay. In kind it is cell-based. The settings on record: Homo sapiens. On the technique in general: The SRB assay estimates cell density from bound dye.
The subject of test [2] is SK-MEL-28. The test can be described thus: Cytotoxicity against human SK-MEL-28 cells assessed as reduction in cell viability after 48 hrs by sulforhodamine B assay. The settings on record: SK-MEL-28, 48 h. It counts as functional, cell-based.

As for `CC(=O)N[C@H]1[C@H](O[C@H]2CC[C@]3(C)[C@H]4CC=C5[C@@H]6CC(C)(C)CC[C@]6(C(=O)O[C@@H]6OC[C@H](O)[C@H](O)[C@H]6O[C@@H]6O[C@@H](C)[C@H](O[C@@H]7O[C@@H](CO)[C@H](O)[C@H]7O)[C@@H](O[C@@H]7OC[C@@H](O)[C@H](O)[C@H]7O)[C@H]6O)[C@H](O)C[C@@]5(C)[C@]4(C)CC[C@H]3C2(C)C)O[C@H](CO)[C@@H](O[C@@H]2O[C@H](CO)[C@@H](O)[C@H](O)[C@H]2O)[C@@H]1O`, the concentration for half-maximal inhibition (IC50) was determined as 14.2 µM in test [1] and 15 µM in test [2].

Turning to `CC(=O)N[C@H]1[C@H](O[C@H]2CC[C@]3(C)[C@H]4CC=C5[C@@H]6CC(C)(C)CC[C@]6(C(=O)O[C@@H]6OC[C@H](O)[C@H](O)[C@H]6O[C@@H]6O[C@@H](C)[C@H](O[C@@H]7O[C@@H](COC(C)=O)[C@H](O)[C@H]7O)[C@@H](O[C@@H]7OC[C@@H](O)[C@H](O)[C@H]7O)[C@H]6O)[C@H](O)C[C@@]5(C)[C@]4(C)CC[C@H]3C2(C)C)O[C@H](CO)[C@@H](O[C@@H]2O[C@H](CO)[C@@H](O)[C@H](O)[C@H]2O)[C@@H]1O`, the values for the 50% inhibitory concentration (IC50) in test [1] and in test [2] were 13.4 µM and 25 µM, respectively.

The IC50 is the point on the concentration scale where inhibition reaches its midpoint.
